Calls of active or inactive are those of the source.
Experiments:
[1] = target: T1, Polyadenylate-binding protein 1 (Homo sapiens, UniProt P11940); assay: MLLE domain peptide-binding blockers, IC50 – biochemical, fluorescence polarization, FITC-PAM2 peptide, dose response (AID 602259); format: functional; conditions: read-out: IC50_Mean
[2] = target: Latent membrane protein 1 (Human herpesvirus 4 (strain B95-8), UniProt P03230); assay: LMP1 TES1 pathway selectivity over dsRED control – imaging, HEK293T, dual-color eGFP/dsRED, cherry-picks, selectivity assay for LMP1 NF-kB inhibitor project, dose response (AID 588398); format: functional, cell-based
[3] = Trypanosoma cruzi growth suppression in host cells – NIH3T3 host cells, beta-gal luminescence, confirmation (AID 2044); format: functional, cell-based;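 also: intracellular parasites grown in NIH/3T3 mouse fibroblasts as host cells; luminescent beta-galactosidase reporter signal from transgenic T. cruzi replicating inside host cells; inhibitors lower the luminescence signal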
Coagulation factor XII = target: T2, Coagulation factor XII (Homo sapiens, UniProt P00748); format: functional;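 also: activated factor XIIa alpha cleaving a fluorogenic AMC peptide substrate; inhibitor potency from loss of enzyme activity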
T2 sequence (P00748 whole entry): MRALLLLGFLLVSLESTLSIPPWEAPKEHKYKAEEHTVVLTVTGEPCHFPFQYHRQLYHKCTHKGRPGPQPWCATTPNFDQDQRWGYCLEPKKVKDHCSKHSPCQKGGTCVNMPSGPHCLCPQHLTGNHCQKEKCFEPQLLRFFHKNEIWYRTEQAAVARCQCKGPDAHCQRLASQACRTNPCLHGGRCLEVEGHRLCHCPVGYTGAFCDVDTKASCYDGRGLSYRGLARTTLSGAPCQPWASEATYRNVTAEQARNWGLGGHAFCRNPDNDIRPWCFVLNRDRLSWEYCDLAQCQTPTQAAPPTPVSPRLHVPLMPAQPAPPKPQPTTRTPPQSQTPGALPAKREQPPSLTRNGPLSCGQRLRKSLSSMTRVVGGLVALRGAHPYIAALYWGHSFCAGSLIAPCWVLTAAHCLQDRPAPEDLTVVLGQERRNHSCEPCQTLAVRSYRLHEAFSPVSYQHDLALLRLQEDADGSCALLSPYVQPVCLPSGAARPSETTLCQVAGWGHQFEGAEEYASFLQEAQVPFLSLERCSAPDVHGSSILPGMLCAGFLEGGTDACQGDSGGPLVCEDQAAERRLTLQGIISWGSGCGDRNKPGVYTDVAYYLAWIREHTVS

[4] = NIH3T3 cell viability loss – ATP luminescence, mouse fibroblasts, counter-screen, dose response (AID 2010); format: functional, cell-based;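 also: cells exposed to compound for about 90 hours before reading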
[5] = target: T1, Polyadenylate-binding protein 1; assay: MLLE binding blockers, Cy5 peptide tracer – biochemical, fluorescence polarization, Cy5-PAM2 peptide, secondary, miRNA deadenylation inhibitor project, dose response (AID 602260); format: functional; conditions: read-out: IC50_Mean
[6] = HPDE-C7 pancreatic duct cell viability loss – fluorescence, HTS (AID 430); format: functional, cell-based; conditions: Homo sapiens
[7] = target: T3, Type-1 angiotensin II receptor (Homo sapiens, UniProt P30556); assay: antagonism of angiotensin II type 1 receptor – cell-based, uHTS hits, selectivity assay for APJ receptor antagonist project, dose response (AID 463214); format: functional;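 also: antagonist potency against angiotensin II stimulated AT1 response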
T3 sequence (P30556 whole entry): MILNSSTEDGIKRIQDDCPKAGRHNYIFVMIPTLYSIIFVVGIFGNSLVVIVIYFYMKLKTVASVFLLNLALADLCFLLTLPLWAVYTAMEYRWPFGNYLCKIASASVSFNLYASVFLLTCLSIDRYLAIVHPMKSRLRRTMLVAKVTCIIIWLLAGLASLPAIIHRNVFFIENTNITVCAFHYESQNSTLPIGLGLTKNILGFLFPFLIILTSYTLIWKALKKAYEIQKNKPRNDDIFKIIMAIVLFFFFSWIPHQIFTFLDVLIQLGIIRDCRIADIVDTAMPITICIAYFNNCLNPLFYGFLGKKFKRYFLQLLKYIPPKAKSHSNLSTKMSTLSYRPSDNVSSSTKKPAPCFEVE

[8] = viability loss of HPDE-C7K cells – cell-based, fluorescence, HTS, primary screen (AID 431); format: functional; conditions: Homo sapiens
INS1 = assay: INS-1E survival protection against cytokine death – cell-based, luminescence, retest, dose response (AID 449756); format: functional; conditions: Rattus norvegicus;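 also: cell death triggered by IL-1 beta plus TNF-alpha plus IFN-gamma mixture; protective hits raise ATP signal compared with cytokine alone wells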
[9] = viability loss in HeLa cells – cytotoxicity control for MgcRacGAP inhibitor project, dose response (AID 624300); format: functional
Beta-galactosidase = Beta-galactosidase (Escherichia coli, UniProt Q8VNN2); assay: PubChem AID 485352; format: functional
[10] = Fluorescence-based cell-based high throughput dose response assay for inhibitors of the interaction of nucleotide-binding oligomerization domain containing 2 (NOD2) and the receptor-interacting serine-threonine kinase 2 (RIPK2).; format: functional; conditions: Homo sapiens
Phospholipase D2 = Phospholipase D2 (Homo sapiens, UniProt O14939); assay: cellular phospholipase D2 inhibition IC50 – cell-based, dose response (AID 602147); format: functional;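 also: cellular assay in HEK293 cells overexpressing GFP-tagged PLD2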
Phospholipase D1 = Phospholipase D1 (Homo sapiens, UniProt Q13393); assay: cellular phospholipase D1 inhibition IC50 – cell-based, dose response (AID 602151); format: functional;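 also: cellular PLD1 assay in Calu-1 cells stimulated with PMA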
Streptococcus = assay: GAS UMAA2166 growth inhibition – luminescence, BacTiterGlo, counter-screen for streptokinase expression inhibitor project, dose response (AID 1915); format: functional, organism-based;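 also: potency for reduction of bacterial viability or growth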
[11] = microbe, parasite or virus in culture; format: functional; conditions: Mycobacterium tuberculosis
[12] = target: Heat shock protein HSP 90-alpha (Homo sapiens, UniProt P07900); format: functional, organism-based
[13] = Luminescence Cell-Based Dose Response HTS to Identify Inhibitors of 5'UTR Stem-Loop Driven Prion Protein mRNA Translation in H4 Neuroglioblastoma Cells. [Related pubchem assays: 1827 (Project Summary), 1813 (Primary HTS)]; format: functional
[14] = luciferase reporter signal suppression in cells – H4 neuroglioma cells, luminescence, dose response (AID 1990); format: functional, cell-based
[15] = alpha-synuclein stem-loop luciferase translation blockers – H4 neuroglioma cells, luminescence, confirmation (AID 1988); format: functional, cell-based
[16] = test system: Streptococcus sp. 'group A'; assay: Streptococcus pyogenes SK(-)GAS viability under kanamycin – luminescence, BacTiterGlo, confirmation, counter-screen for streptokinase expression inhibitor project, dose response (AID 1900); format: functional, organism-based

T1 sequence (P11940 whole entry, the tested form may be a part): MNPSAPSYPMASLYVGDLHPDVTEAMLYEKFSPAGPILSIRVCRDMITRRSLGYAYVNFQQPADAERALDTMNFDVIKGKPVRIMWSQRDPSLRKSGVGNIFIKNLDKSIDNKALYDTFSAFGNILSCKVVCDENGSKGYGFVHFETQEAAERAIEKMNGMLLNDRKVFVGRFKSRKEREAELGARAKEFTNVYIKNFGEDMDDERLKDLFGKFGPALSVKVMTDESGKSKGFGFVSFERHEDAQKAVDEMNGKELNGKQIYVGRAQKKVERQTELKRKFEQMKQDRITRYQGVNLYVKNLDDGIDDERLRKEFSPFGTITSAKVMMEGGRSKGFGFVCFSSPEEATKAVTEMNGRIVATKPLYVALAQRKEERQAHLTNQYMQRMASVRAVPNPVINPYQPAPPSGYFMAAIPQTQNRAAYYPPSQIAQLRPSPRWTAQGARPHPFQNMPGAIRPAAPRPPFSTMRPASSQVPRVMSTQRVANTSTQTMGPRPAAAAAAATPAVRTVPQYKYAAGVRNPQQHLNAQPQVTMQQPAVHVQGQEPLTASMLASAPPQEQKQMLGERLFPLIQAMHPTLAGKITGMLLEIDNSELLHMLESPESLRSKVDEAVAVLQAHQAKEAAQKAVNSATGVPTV
Sequence of Phospholipase D1 (Q13393 whole entry): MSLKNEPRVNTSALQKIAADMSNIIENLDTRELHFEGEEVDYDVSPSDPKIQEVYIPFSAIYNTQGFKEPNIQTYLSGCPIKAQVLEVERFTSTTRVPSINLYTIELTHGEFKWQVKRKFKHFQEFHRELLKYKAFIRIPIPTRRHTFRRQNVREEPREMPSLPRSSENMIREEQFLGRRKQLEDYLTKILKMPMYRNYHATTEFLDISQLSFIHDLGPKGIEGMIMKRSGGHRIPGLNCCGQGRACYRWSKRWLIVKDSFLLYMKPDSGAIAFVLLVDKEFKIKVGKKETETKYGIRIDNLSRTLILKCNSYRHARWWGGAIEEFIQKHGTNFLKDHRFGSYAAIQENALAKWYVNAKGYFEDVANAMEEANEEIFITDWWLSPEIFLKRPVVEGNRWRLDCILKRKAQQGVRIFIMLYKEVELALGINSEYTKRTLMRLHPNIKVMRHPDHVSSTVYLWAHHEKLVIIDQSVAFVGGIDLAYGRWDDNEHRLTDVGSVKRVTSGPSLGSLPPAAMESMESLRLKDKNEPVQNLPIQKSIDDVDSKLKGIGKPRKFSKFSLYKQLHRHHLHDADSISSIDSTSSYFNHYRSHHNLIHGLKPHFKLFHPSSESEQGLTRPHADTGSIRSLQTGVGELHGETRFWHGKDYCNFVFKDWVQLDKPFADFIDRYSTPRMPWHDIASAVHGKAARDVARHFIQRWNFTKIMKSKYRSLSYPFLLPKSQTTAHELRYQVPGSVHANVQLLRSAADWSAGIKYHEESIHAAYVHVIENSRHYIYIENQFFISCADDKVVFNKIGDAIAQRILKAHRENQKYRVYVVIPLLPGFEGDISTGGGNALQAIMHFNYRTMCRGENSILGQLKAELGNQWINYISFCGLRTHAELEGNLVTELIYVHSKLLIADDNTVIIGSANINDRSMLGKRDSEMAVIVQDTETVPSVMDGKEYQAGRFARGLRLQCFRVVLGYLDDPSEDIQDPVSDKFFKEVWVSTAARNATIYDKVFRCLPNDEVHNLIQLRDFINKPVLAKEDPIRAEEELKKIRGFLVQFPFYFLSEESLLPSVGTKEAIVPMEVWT
Sequence of Phospholipase D2 (O14939 whole entry): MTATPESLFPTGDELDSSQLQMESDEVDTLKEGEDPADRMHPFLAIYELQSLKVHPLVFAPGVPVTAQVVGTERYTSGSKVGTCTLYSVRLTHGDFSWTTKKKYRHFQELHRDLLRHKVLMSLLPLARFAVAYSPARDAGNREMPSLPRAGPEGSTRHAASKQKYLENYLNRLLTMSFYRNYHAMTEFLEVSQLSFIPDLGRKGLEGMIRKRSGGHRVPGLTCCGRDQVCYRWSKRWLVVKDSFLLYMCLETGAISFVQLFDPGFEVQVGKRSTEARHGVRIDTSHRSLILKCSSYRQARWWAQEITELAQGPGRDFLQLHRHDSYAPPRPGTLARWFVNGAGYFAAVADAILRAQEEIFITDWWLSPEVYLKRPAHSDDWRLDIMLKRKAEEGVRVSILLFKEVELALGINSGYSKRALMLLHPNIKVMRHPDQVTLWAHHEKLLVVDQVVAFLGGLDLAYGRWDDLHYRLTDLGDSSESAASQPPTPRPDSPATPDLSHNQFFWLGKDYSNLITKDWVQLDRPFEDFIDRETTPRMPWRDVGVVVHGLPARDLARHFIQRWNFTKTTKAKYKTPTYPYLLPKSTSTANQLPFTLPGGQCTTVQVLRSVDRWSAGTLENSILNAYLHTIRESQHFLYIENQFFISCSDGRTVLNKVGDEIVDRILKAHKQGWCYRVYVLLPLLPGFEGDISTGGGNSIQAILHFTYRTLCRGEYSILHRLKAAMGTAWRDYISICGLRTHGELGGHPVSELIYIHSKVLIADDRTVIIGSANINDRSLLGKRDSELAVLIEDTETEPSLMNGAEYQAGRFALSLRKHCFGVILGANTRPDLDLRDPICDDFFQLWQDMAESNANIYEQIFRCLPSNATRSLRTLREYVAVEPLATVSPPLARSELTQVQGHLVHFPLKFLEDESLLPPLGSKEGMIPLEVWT
Sequence of Beta-galactosidase (Q8VNN2 whole entry, the tested form may be a part): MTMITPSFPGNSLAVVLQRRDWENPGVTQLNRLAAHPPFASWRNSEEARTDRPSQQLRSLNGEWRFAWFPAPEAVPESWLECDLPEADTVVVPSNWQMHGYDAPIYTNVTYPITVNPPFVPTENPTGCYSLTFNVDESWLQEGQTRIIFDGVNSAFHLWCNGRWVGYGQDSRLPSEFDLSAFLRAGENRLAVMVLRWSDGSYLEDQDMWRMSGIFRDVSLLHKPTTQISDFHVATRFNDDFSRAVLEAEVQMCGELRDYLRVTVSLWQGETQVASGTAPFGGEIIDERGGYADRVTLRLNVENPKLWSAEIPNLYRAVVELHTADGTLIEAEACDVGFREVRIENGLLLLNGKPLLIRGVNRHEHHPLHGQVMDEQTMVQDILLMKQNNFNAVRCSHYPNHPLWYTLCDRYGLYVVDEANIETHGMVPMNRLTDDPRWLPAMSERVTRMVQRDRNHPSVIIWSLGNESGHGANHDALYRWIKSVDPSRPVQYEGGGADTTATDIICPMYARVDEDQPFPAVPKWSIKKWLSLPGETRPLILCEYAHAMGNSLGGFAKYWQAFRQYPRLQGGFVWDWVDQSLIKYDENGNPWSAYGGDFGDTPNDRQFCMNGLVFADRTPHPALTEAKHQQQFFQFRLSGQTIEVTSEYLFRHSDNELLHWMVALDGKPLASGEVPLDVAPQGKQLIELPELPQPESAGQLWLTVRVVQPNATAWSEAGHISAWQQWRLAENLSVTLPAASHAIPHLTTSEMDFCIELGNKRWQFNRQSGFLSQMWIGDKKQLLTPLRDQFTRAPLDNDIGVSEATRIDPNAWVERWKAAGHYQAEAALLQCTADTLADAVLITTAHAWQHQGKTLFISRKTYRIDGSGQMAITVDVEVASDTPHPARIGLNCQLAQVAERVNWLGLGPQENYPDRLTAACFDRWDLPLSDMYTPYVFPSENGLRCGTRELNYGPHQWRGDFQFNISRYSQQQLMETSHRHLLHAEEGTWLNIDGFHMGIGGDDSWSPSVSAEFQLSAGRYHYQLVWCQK
Sequence of Latent membrane protein 1 (P03230 whole entry): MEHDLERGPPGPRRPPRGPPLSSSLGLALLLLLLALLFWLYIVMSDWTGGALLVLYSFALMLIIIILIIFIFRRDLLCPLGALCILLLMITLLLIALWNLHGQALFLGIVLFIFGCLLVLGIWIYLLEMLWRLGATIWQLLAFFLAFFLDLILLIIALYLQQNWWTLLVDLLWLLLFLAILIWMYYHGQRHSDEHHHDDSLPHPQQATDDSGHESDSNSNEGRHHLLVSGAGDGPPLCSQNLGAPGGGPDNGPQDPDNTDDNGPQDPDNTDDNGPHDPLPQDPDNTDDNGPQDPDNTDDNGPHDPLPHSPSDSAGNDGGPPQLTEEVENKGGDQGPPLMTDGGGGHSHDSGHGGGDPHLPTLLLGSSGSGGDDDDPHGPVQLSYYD

## C=CCn1c(O)c(N=NC(S)=Nc2ccccc2F)c2cc(S(=O)(=O)N3CCOCC3)ccc21
[1]
  IC50: > 66000 nM (inactive)
[2]
  AC50: 38300 nM (active)
[3]
  EC50: 495 nM (active)
Coagulation factor XII
  IC50: > 50000 nM (inconclusive)
[4]
  EC50: 2840 nM (active)
[5]
  IC50: > 66000 nM (inactive)

## CC1(C)CC(=O)C2=C(C1)OC1=C(C(=O)CC(C)(C)C1)C2c1ccc(O)cc1O
[6]
  EC50: 5630 nM (active)
[7]
  IC50: 9760 nM (active)
[8]
  EC50: 7070 nM (active)
INS1
  AC50: 6760 nM (active)
[9]
  CC50: 50000 nM (active)
Beta-galactosidase
  EC50: > 40000 nM (inactive)
[10]
  IC50: 1360 nM (active)

## O=C(NCCN1CCC2(CC1)C(=O)NCN2c1cccc(F)c1)c1cccc(F)c1
Phospholipase D2
  IC50: 1490 nM (active)
Phospholipase D1
  IC50: 24000 nM (active)

## Cc1ccc(C(=O)N[C@@H](C)CN2CCC(n3c(=O)[nH]c4cc(Cl)ccc43)CC2)cc1
Phospholipase D2
  IC50: 1050 nM (active)
Phospholipase D1
  IC50: 11 nM (active)

## CNc1ccc2oc(C[C@H]3O[C@@]4(CC[C@H]3C)O[C@H]([C@H](C)C(=O)c3ccc[nH]3)[C@H](C)C[C@H]4C)nc2c1C(=O)O [CALCIMYCIN]
[7]
  IC50: > 40000 nM (not active)
Streptococcus
  EC50: 128 nM (active)
[11]
  CC50: 319 nM (active)
[12]
  AC50: 1070 nM (active)
INS1
  AC50: 2080 nM (active)
[13]
  EC50: 267 nM (active)
[14]
  EC50: 293 nM (active)
[15]
  EC50: 172 nM (active)
Beta-galactosidase
  EC50: > 40000 nM (inactive)
[16]
  EC50: < 60 nM (active)

From ChEMBL document CHEMBL1201862, “PubChem BioAssay data set” (2004)
